Where a SMILES comes first, the peptide text is derived from it. Bridges are numbered along the chain shown (N, C = ends). The star is where a group is joined. DOTA = O=C(O)CN1CCN(CC(=O)O)CCN(CC(=O)*)CCN(CC(=O)O)CC1

The nature of series [1]: Serum stability assay (radio-HPLC). The series is classed as in vitro ADME, human. On the procedure:
Five MBq of the purified ^131I-radiolabeled peptide was incubated in 300 μL human serum at 37° C. After different time intervals (15 min to 24 hours) 20 μL serum was precipitated with 40 μL acetonitrile. The stability of the labeled peptide in the supernatant was monitored by radio-HPLC at selected time points using a chromolith performance RP18ec column (3 mm×100 mm) equipped with a gamma detector (Packard COBRA™ Auto-Gamma, GMI). Separation condition was a gradient of 0% to 60% aqueous acetonitrile supplemented with 0.1% TFA over 10 min with a flow rate of 2 mL/min.

For series [2], the system named is HNSCC cell lines HNO97, HNO399, and HNO223. The class given is binding, human. Here is the method:
For the assessment of the peptide binding capacity in vitro, 2.5-4×10^5 cells were seeded into 6-well plates and cultivated for 48 h. ^125I-labeled peptide resuspended in 1 mL serum-free medium was added and incubated for either 10 min or 60 min with or without different concentrations of unlabeled peptide (10^−4-10^−11 M). Afterwards, cell monolayers were washed three times with 1 mL phosphate-buffered saline (pH 7.4) to remove unbound peptide and the cells were harvested with 1.4 mL lysis buffer (0.3 M NaOH). To evaluate kinetic properties the cells were exposed to ^177Lu-DOTA-labeled peptides for 10, 30, 60, 120, and 240 min, respectively, and lysed as described. For the efflux experiments the cells were incubated with ^177Lu-DOTA-labeled peptides for 60 min. Thereafter, radioactive medium was replaced by non-radioactive medium and cell monolayers were incubated for additional 60, 120, and 240 min and afterwards lysed as described earlier. The internalization was assessed after exposure of the cells to ^177Lu-DOTA-labeled peptides for 10, 30, 60, 120, and 240 min at 37° C. Unspecifically bound peptide was removed from the surface by incubation with 1 M glycine-HCl solution (pH 2.2) for 10 min. The monolayer cell was rinsed with PBS and cells were lysed as described before. Radioactivity was determined in a y-counter and calculated as percentage of the applied dose per 1×10^6 cells. […]

Series [3] has as its target ITGαvβ6 (Homo sapiens, UniProt P06756+P18564). Description: Surface plasmon resonance assay (SPR), ITGαvβ6. The series is classed as binding. The settings on record: peptide immobilized, integrin as analyte, 1:1 Langmuir fit. On the procedure: Assessment of the binding affinity was performed on a BiaCore X100 (GE Healthcare). To avoid denaturation of the heterodimer during amide activation ITGαvβ6 and ITGαvβ3, respectively, were used as analytes and SFITGv6 was immobilized at its N-terminus on a C1 sensor Chip (BR-1005-35, GE Healthcare) using a manual amine coupling protocol. Briefly, after activation of the sensor chip surface with a solution of EDC 0.4 M/NHS 0.1 M for 5 min a 100 μM peptide dissolved in HBS-EP running buffer (0.1 M HEPES, 30 mM EDTA, 1.5 M NaCl, 0.5% surfactant P20, pH 7.2) was immobilized with a contact time of 30 sec until a loading level of 18 response units (RU) was obtained. […] The SPR-sensogram data were evaluated with the BiaCore evaluation software. The dissociation constant (KD) was determined by a 1:1 Langmuir model fit of the SPR-sensograms.
Assessment of the binding affinity was performed on a BiaCore X100 (GE Healthcare). To avoid denaturation of the heterodimer during amide activation ITGαvβ6 and ITGαvβ3, respectively, were used as analytes and SFITGv6 was immobilized at its N-terminus on a C1 sensor Chip (BR-1005-35, GE Healthcare) using a manual amine coupling protocol. […] The SPR sensogram data were evaluated with the BiaCore evaluation software. The dissociation constant (KD) was determined by a 1:1 Langmuir model fit of the SPR sensograms.

For series [4], the system named is HNO97 cells. The series is classed as binding, human. As to conditions: 48 h. Here is the method: (§1) For binding studies, 2.5×10^5 to 4×10^5 cells were seeded in 6-well plates and cultivated for 48 hours. Cells were incubated for 60 min with 1 mL serum-free medium containing the ^125I-labeled peptide (see above). For competition experiments, cells were simultaneously exposed to unlabeled (10^-4 M to 10^-10 M) and ^125I-labeled peptides. After three washing steps with PBS (pH 7.4) the cells were lysed with 0.5 mL of 0.3 M NaOH. Experiments concerning the internalization, kinetics and efflux were additionally performed with ^177Lu-DOTA-SFITGv6. To evaluate kinetics and efflux HNO97 cells were incubated for different time intervals (10 min to 480 min) and 60 min, respectively, with ^177Lu-DOTA-SFITGv6 and lysed as described. To continue with the efflux experiment radioactive medium was replaced by non-radioactive medium and cells were incubated again for 60 to 240 min before measuring radioactivity of the cell lysates and the medium. For internalization experiments the cells were exposed to ^177Lu-DOTA-SFITGv6 for different time intervals (10 to 240 min) at 37° C. and 4° C. After three washing steps with PBS the cells were incubated with 1 mL of glycine-HCl 50 mmol/L in PBS (pH 2.8) for 10 min at RT to remove the surface bound activity. Then, cells were washed with 3 mL of ice-cold PBS and lysed as described. Radioactivity was determined in a gamma counter and calculated as percentage of the applied dose per 1×10^6 cells. Experiments were performed three times, and three repetitions per independent experiment were acquired.

Series [5] concerns HNO97 cells. The series can be described thus: In vitro binding, kinetics, internalization and efflux on HNO97 cells. The class given is cell-based, human. Here is the method:
as §1
For the assessment of the peptide binding capacity in vitro, 2.5-4×10^5 cells were seeded into 6-well plates and cultivated for 48 h. ^125I-labeled peptide resuspended in 1 mL serum-free medium was added and incubated for either 10 min or 60 min with or without different concentrations of unlabeled peptide (10^−4-10^−11 M). Afterwards, cell monolayers were washed three times with 1 mL phosphate-buffered saline (pH 7.4) to remove unbound peptide and the cells were harvested with 1.4 mL lysis buffer (0.3 M NaOH). To evaluate kinetic properties the cells were exposed to ^177Lu-DOTA-labeled peptides for 10, 30, 60, 120, and 240 min, respectively, and lysed as described. For the efflux experiments the cells were incubated with ^177Lu-DOTA-labeled peptides for 60 min. Thereafter, radioactive medium was replaced by non-radioactive medium and cell monolayers were incubated for additional 60, 120, and 240 min and afterwards lysed as described earlier. The internalization was assessed after exposure of the cells to ^177Lu-DOTA-labeled peptides for 10, 30, 60, 120, and 240 min at 37° C. Unspecifically bound peptide was removed from the surface by incubation with 1 M glycine-HCl solution (pH 2.2) for 10 min. The monolayer cell was rinsed with PBS and cells were lysed as described before. Radioactivity was determined in a y-counter and calculated as percentage of the applied dose per 1×10^6 cells. Experiments were performed three times, and three repetitions per independent experiment were acquired.

In series [6] the test system is HNO223 cells. The series can be described thus: In vitro binding on HNO223 cells. The class given is cell-based, human. As to conditions: Example 2, 10 min to 480 min (FIG. 16). Here is the method: For binding studies, 2.5×10^5 to 4×10^5 cells were seeded in 6-well plates and cultivated for 48 hours. Cells were incubated for 60 min with 1 mL serum-free medium containing the ^125I-labeled peptide (see above). For competition experiments, cells were simultaneously exposed to unlabeled (10^-4 M to 10^-10 M) and ^125I-labeled peptides. After three washing steps with PBS (pH 7.4) the cells were lysed with 0.5 mL of 0.3 M NaOH. Experiments concerning the internalization, kinetics and efflux were additionally performed with ^177Lu-DOTA-SFITGv6. […] To continue with the efflux experiment radioactive medium was replaced by non-radioactive medium and cells were incubated again for 60 to 240 min before measuring radioactivity of the cell lysates and the medium. […] Radioactivity was determined in a gamma counter and calculated as percentage of the applied dose per 1×10^6 cells. […]
For the assessment of the peptide binding capacity in vitro, 2.5-4×10^5 cells were seeded into 6-well plates and cultivated for 48 h. ^125I-labeled peptide resuspended in 1 mL serum-free medium was added and incubated for either 10 min or 60 min with or without different concentrations of unlabeled peptide (10^−4-10^−11 M). […] The internalization was assessed after exposure of the cells to ^177Lu-DOTA-labeled peptides for 10, 30, 60, 120, and 240 min at 37° C. […]

Series [7] in a line: Biodistribution, Capan-2 xenografts. The class given is in vivo, mice. The settings on record: Balb/c nude, mouse, tumor (Capan-2 xenograft), iv, 1 MBq, total radioactivity; after 1 hour (highest). Here is the method:
6 to 8 week old Balb c/c nude mice (Charles River Lab.) were inoculated with 5*10^6 Capan-2 cells in 100 μl Opti-MEM medium. After 4 to 6 weeks the tumor has grown 10-15 mm in diameter. For small animal PET imaging 25 MBq of the ^68Ga-labeled peptide (2 nmol) was injected into the tail vein.
For biodistribution assays 1 MBq of ^177Lu-labeled peptide was injected into the tail vein of each mouse. After different time points each animal was sacrificed. Peripheral blood, spleen, liver, intestine, kidney, heart, lung, brain, muscle, and tumor were removed and weighted. Radioactivity was measured in a gamma counter and expressed as injected dose per gram (% ID/g).

Take `CSCC[C@@H]1NC(=O)[C@H](CC(C)C)NC(=O)[C@H](CC(=O)O)NC(=O)CNC(=O)[C@H](CCCNC(=N)N)NC(=O)[C@H](Cc2ccccc2)NC(=O)[C@H]([C@@H](C)O)NC(=O)[C@@H](NC(=O)[C@H](CCCNC(=N)N)NC(=O)CN)CSSC[C@@H](C(=O)N[C@@H](Cc2ccc(O)cc2)C(=O)N2CCC[C@H]2C(=O)N[C@@H](CC(=O)O)C(=O)O)NC(=O)[C@H](CC(C)C)NC(=O)[C@H](CCC(N)=O)NC1=O` [SFITGv6, NH2-G-R-C1-T-F-R-G-D-L-M-Q-L-C1-Y-P-D-COOH] (H-GRCTFRGDLMQLCYPD-OH; disulfide 3-13): the “proteolytic stability in human serum” value in series [1] was “outstanding stability in human serum over a period of 24 hours”. Also, the IC50 in series [2] is 14.1 nM; in series [4] it was 16.1 nM. The Kd in series [3] was found to be 14.8 ± 26 nM.

The molecule `CC(C)C[C@@H]1NC(=O)[C@H](CC(=O)O)NC(=O)CNC(=O)[C@H](CCCNC(=N)N)NC(=O)CNC(=O)[C@H]([C@@H](C)O)NC(=O)[C@@H](NC(=O)[C@H](CCCNC(=N)N)NC(=O)CNC(=O)CN2CCN(CC(=O)O)CCN(CC(=O)O)CCN(CC(=O)O)CC2)CSSC[C@@H](C(=O)N[C@@H](Cc2ccc(O)cc2)C(=O)N2CCC[C@H]2C(=O)N[C@@H](CC(=O)O)C(N)=O)NC(=O)[C@H](CC(C)C)NC(=O)[C@H](CCCNC(=N)N)NC(=O)CNC1=O` [^177Lu-DOTA-SFLAP3, metal not drawn] ({DOTA}-GRCTGRGDLGRLCYPD-NH2; disulfide 3-13; N-terminus and C-terminus assumed) gave an internalization in series [5] (% of the total bound peptide, Example 2, within 60 min) of 60%. The “maximum binding capacity of ^177Lu-DOTA-labeled peptide (kinetics)” value in series [5] (Example 2, 10 min to 480 min (FIG. 16)) turned out to be 18.5%; in series [6], 9.66%. Further, the “total bound ^177Lu-DOTA-labeled peptide (internalization experiment)” value in series [5] (Example 2, FIG. 17A, B) came to 11.14%. In addition, the tissue uptake at 1 h in series [7] is 4 %ID/g.

For the origin of these results see patent US20200131227A1, “POLYPEPTIDE WITH TUMOUR BINDING ACTIVITY” (RUPRECHT-KARLS-UNIVERSITÄT HEIDELBERG, priority 2017, published 2020).
